From patent publication US11591336B2 (Relay Therapeutics, Inc., priority 2017, dated 2023)
Where a name gives a salt, the structure may show the parent alone.

Target: SHP2 (Homo sapiens (Human), UniProt Q06124)
Assay: SHP2 Allosteric Inhibition Assay (DiFMUP prompt fluorescence)
Assay type: biochemical
Conditions: 0.25 nM SHP2 activated with 0.5 μM peptide IRS1_pY1172(dPEG8)pY1222; substrate DiFMUP 100 μM; 25° C.

IC50	SMILES
< 1 µM	C[C@@H]1OCC2(CCN(c3cnc4c(N5CCCc6nc(C(F)F)ccc65)n[nH]c4n3)CC2)[C@@H]1N [Compound 297]
< 1 µM	C[C@@H]1OCC2(CCN(c3cnc4c(N5CCCc6nc(-c7cncnc7)ccc65)n[nH]c4n3)CC2)[C@@H]1N [Compound 304]
< 1 µM	C[C@@H]1OCC2(CCN(c3cnc4c(N5CCCc6nc(-c7ccnnc7)ccc65)n[nH]c4n3)CC2)[C@@H]1N [Compound 305]
< 1 µM	CC(=O)NCc1ccc2c(n1)CCCN2c1n[nH]c2nc(N3CCC4(CC3)CO[C@@H](C)[C@H]4N)cnc12 [Compound 306, N-[(5-{6-[(3S,4S)-4-amino-3-methyl-2-oxa-8-azaspiro[4.5]decan-8-yl]-1H-pyrazolo[3,4-b]pyrazin-3-yl}-5,6,7,8-tetrahydro-1,5-naphthyridin-2-yl)methyl]acetamide dihydrochloride]
< 1 µM	CCCn1cc(-c2ccc3c(n2)CCCN3c2n[nH]c3nc(N4CCC5(CC4)CO[C@@H](C)[C@H]5N)cnc23)cn1 [Compound 311, (3S,4S)-3-methyl-8-{3-[6-(1-propyl-1H-pyrazol-4-yl)-1,2,3,4-tetrahydro-1,5-naphthyridin-1-yl]-1H-pyrazolo[3,4-b]pyrazin-6-yl}-2-oxa-8-azaspiro[4.5]decan-4-amine]
< 1 µM	CC(C)n1cc(-c2ccc3c(n2)CCCN3c2n[nH]c3nc(N4CCC5(CC4)CO[C@@H](C)[C@H]5N)cnc23)cn1 [Compound 312, (3S,4S)-8-(3-(6-(1-isopropyl-1H-pyrazol-4-yl)-3,4-dihydro-1,5-naphthyridin-1(2H)-yl)-1H-pyrazolo[3,4-b]pyrazin-6-yl)-3-methyl-2-oxa-8-azaspiro[4.5]decan-4-amine]
< 1 µM	COc1ccc2c(n1)CCCN2c1n[nH]c2nc(N3CCC4(CC3)CO[C@@H](C)[C@H]4N)cnc12 [Compound 315]
< 1 µM	C[C@@H]1OCC2(CCN(c3cnc4c(N5CCCc6nc(-c7cnco7)ccc65)n[nH]c4n3)CC2)[C@@H]1N [Compound 318]
< 1 µM	Cc1nc(-c2ccc3c(n2)CCCN3c2n[nH]c3nc(N4CCC5(CC4)CO[C@@H](C)[C@H]5N)cnc23)no1 [Compound 319, (3S,4S)-3-methyl-8-(3-[6-(5-methyl-1,2,4-oxadiazol-3-yl)-1,2,3,4-tetrahydro-1,5-naphthyridin-1-yl]-1H-pyrazolo[3,4-b]pyrazin-6-yl)-2-oxa-8-azaspiro[4.5]decan-4-amine; formic acid]
< 1 µM	CCc1nc(-c2ccc3c(n2)CCCN3c2n[nH]c3nc(N4CCC5(CC4)CO[C@@H](C)[C@H]5N)cnc23)no1 [Compound 320, (3S,4S)-8-{3-[6-(5-ethyl-1,2,4-oxadiazol-3-yl)-1,2,3,4-tetrahydro-1,5-naphthyridin-1-yl]-1H-pyrazolo[3,4-b]pyrazin-6-yl}-3-methyl-2-oxa-8-azaspiro[4.5]decan-4-amine; formic acid]
< 1 µM	CC(C)c1nc(-c2ccc3c(n2)CCCN3c2n[nH]c3nc(N4CCC5(CC4)CO[C@@H](C)[C@H]5N)cnc23)no1 [Compound 321, (3S,4S)-3-methyl-8-(3-{6-[5-(propan-2-yl)-1,2,4-oxadiazol-3-yl]-1,2,3,4-tetrahydro-1,5-naphthyridin-1-yl}-1H-pyrazolo[3,4-b]pyrazin-6-yl)-2-oxa-8-azaspiro[4.5]decan-4-amine; formic acid]
< 1 µM	Cc1coc(-c2ccc3c(n2)CCCN3c2n[nH]c3nc(N4CCC5(CC4)CO[C@@H](C)[C@H]5N)cnc23)n1 [Compound 328]
< 1 µM	COCCn1cc(-c2ccc3c(n2)CCCN3c2n[nH]c3nc(N4CCC5(CC4)CO[C@@H](C)[C@H]5N)cnc23)cn1 [Compound 333, (3S,4S)-8-(3-{6-[1-(2-methoxyethyl)-1H-pyrazol-4-yl]-1,2,3,4-tetrahydro-1,5-naphthyridin-1-yl}-1H-pyrazolo[3,4-b]pyrazin-6-yl)-3-methyl-2-oxa-8-azaspiro[4.5]decan-4-amine]
< 1 µM	CCn1cc(-c2ccc3c(n2)CCCN3c2n[nH]c3nc(N4CCC5(CC4)CO[C@@H](C)[C@H]5N)cnc23)cn1 [Compound 334, (3S,4S)-8-{3-[6-(1-ethyl-1H-pyrazol-4-yl)-1,2,3,4-tetrahydro-1,5-naphthyridin-1-yl]-1H-pyrazolo[3,4-b]pyrazin-6-yl}-3-methyl-2-oxa-8-azaspiro[4.5]decan-4-amine]

The next lines start with the molecule.

SMILES	IC50
Cn1cc(-c2ccc3c(n2)CCCN3c2n[nH]c3nc(N4CCC5(CCC[C@H]5N)CC4)cnc23)cn1 [Compound 298, (R)-8-(3-(6-(1-methyl-1H-pyrazol-4-yl)-3,4-dihydro-1,5-naphthyridin-1(2H)-yl)-1H-pyrazolo[3,4-b]pyrazin-6-yl)-8-azaspiro[4.5]decan-1-amine]	< 1 µM
C[C@H]1CCN(c2n[nH]c3nc(N4CCC5(CC4)COC[C@H]5N)cnc23)c2ccc(-c3ncon3)cc21 [Compound 299, (4S)-8-{3-[(4S)-4-methyl-6-(1,2,4-oxadiazol-3-yl)-1,2,3,4-tetrahydroquinolin-1-yl]-1H-pyrazolo[3,4-b]pyrazin-6-yl}-2-oxa-8-azaspiro[4.5]decan-4-amine]	< 1 µM
C[C@@H]1OCC2(CCN(c3cnc4c(N5CCN(C)c6ncccc65)n[nH]c4n3)CC2)[C@@H]1N [Compound 301]	< 1 µM
CC(=O)N1CCN(c2n[nH]c3nc(N4CCC5(CC4)CO[C@@H](C)[C@H]5N)cnc23)c2ccc(C#N)cc21 [Compound 302]	< 1 µM
C[C@@H]1OCC2(CCN(c3cnc4c(N5CCCc6c5ccnc6-c5ccnn5C)n[nH]c4n3)CC2)[C@@H]1N [Compound 303]	< 1 µM
C[C@@H]1OCC2(CCN(c3cnc4c(N5CCCc6c5ccnc6N5CCOCC5)n[nH]c4n3)CC2)[C@@H]1N [Compound 307]	< 1 µM
C[C@@H]1OCC2(CCN(c3cnc4c(N5CCCc6nc(-n7cnnc7)ccc65)n[nH]c4n3)CC2)[C@@H]1N [Compound 308]	< 1 µM
C[C@@H]1OCC2(CCN(c3cnc4c(N5CCCc6nc(C7CCOC7)ccc65)n[nH]c4n3)CC2)[C@@H]1N (stereo partly drawn) [Compound 309, (3S,4S)-3-methyl-8-(3-(6-(tetrahydrofuran-3-yl)-3,4-dihydro-1,5-naphthyridin-1(2H)-yl)-1H-pyrazolo[3,4-b]pyrazin-6-yl)-2-oxa-8-azaspiro[4.5]decan-4-amine]	< 1 µM
C[C@@H]1OCC2(CCN(c3cnc4c(N5CCN(C)c6nc(-c7cnn(C)c7)ccc65)n[nH]c4n3)CC2)[C@@H]1N [Compound 310, (3S,4S)-3-methyl-8-(3-(4-methyl-6-(1-methyl-1H-pyrazol-4-yl)-3,4-dihydropyrido[2,3-b]pyrazin-1(2H)-yl)-1H-pyrazolo[3,4-b]pyrazin-6-yl)-2-oxa-8-azaspiro[4.5]decan-4-amine]	< 1 µM
CNC(=O)N1CCN(c2n[nH]c3nc(N4CCC5(CC4)CO[C@@H](C)[C@H]5N)cnc23)c2ncccc21 [Compound 313, 4-{6-[(3S,4S)-4-amino-3-methyl-2-oxa-8-azaspiro[4.5]decan-8-yl]-1H-pyrazolo[3,4-b]pyrazin-3-yl}-N-methyl-1H,2H,3H,4H-pyrido[2,3-b]pyrazine-1-carboxamide]	1 to 10 µM
C[C@@H]1OCC2(CCN(c3cnc4c(N5CCCc6nc(Oc7cnn(C)c7)ccc65)n[nH]c4n3)CC2)[C@@H]1N [Compound 314]	< 1 µM
C[C@@H]1OCC2(CCN(c3cnc4c(N5CCNc6cc(-c7cnn(C)c7)ccc65)n[nH]c4n3)CC2)[C@@H]1N [Compound 316, (3S,4S)-3-methyl-8-{3-[6-(1-methyl-1H-pyrazol-4-yl)-1,2,3,4-tetrahydroquinoxalin-1-yl]-1H-pyrazolo[3,4-b]pyrazin-6-yl}-2-oxa-8-azaspiro[4.5]decan-4-amine]	< 1 µM
C[C@@H]1OCC2(CCN(c3cnc4c(N5CCCc6nc(-c7cnn(C(F)F)c7)ccc65)n[nH]c4n3)CC2)[C@@H]1N [Compound 317]	< 1 µM
C[C@@H]1OCC2(CCN(c3cnc4c(N5CC(=O)Nc6ncncc65)n[nH]c4n3)CC2)[C@@H]1N [Compound 322]	1 to 10 µM
CC(=O)N1CCN(c2n[nH]c3nc(N4CCC5(CC4)CO[C@@H](C)[C@H]5N)cnc23)c2ccc(-c3cnn(C)c3)cc21 [Compound 323]	< 1 µM
C[C@@H]1OCC2(CCN(c3cnc4c(N5CCOc6nc(-c7cnn(C)c7)ccc65)n[nH]c4n3)CC2)[C@@H]1N [Compound 324]	< 1 µM
C[C@@H]1OCC2(CCN(c3cnc4c(N5CCN(S(C)(=O)=O)c6ccccc65)n[nH]c4n3)CC2)[C@@H]1N [Compound 325]	< 1 µM
C[C@@H]1OCC2(CCN(c3cnc4c(N5CC[C@@H](C(F)F)c6cc(C#N)ccc65)n[nH]c4n3)CC2)[C@@H]1N [Compound 326]	< 1 µM
C[C@@H]1OCC2(CCN(c3cnc4c(N5CC[C@H](C(F)F)c6cc(C#N)ccc65)n[nH]c4n3)CC2)[C@@H]1N [Compound 327]	< 1 µM
CNC(=O)c1ccc2c(c1)NCCN2c1n[nH]c2nc(N3CCC4(CC3)CO[C@@H](C)[C@H]4N)cnc12 [Compound 329, 1-{6-[(3S,4S)-4-amino-3-methyl-2-oxa-8-azaspiro[4.5]decan-8-yl]-1H-pyrazolo[3,4-b]pyrazin-3-yl}-N-methyl-1,2,3,4-tetrahydroquinoxaline-6-carboxamide]	< 1 µM
Cc1cccc2c1CCCN2c1n[nH]c2nc(N3CCC4(CC3)CO[C@@H](C)[C@H]4N)cnc12 [Compound 330]	< 1 µM
CNC(=O)N1CCN(c2n[nH]c3nc(N4CCC5(CC4)CO[C@@H](C)[C@H]5N)cnc23)c2cccnc21 [Compound 331, 1-{6-[(3S,4S)-4-amino-3-methyl-2-oxa-8-azaspiro[4.5]decan-8-yl]-1H-pyrazolo[3,4-b]pyrazin-3-yl}-N-methyl-1H,2H,3H,4H-pyrido[2,3-b]pyrazine-4-carboxamide]	< 1 µM
C[C@@H]1OCC2(CCN(c3cnc4c(N5CCNc6cc(-c7ccnnc7)ccc65)n[nH]c4n3)CC2)[C@@H]1N [Compound 332]	< 1 µM
C[C@@H]1OCC2(CCN(c3cnc4c(N5CCCc6c5ccnc6C(N)=O)n[nH]c4n3)CC2)[C@@H]1N [Compound 335, 1-{6-[(3S,4S)-4-amino-3-methyl-2-oxa-8-azaspiro[4.5]decan-8-yl]-1H-pyrazolo[3,4-b]pyrazin-3-yl}-1,2,3,4-tetrahydro-1,6-naphthyridine-5-carboxamide]	< 1 µM
